Patent US8383637B2, “2-amino-quinazoline derivatives useful as inhibitors of β-secretase (BACE)” (Jansssen Pharmaceutica N.V., priority 2004, dated 2013)
Like-named read-outs stand apart in the source and are kept apart here.

Tests used:
[1] = biological target: T1, β-secretase(BACE) (Homo sapiens, UniProt P56817); assay: BACE FS1% Inhibition Assay; format: biochemical; settings: FS1 substrate; for inhibition at 0.3 µM / % Inhibition (FS) 0.3 μM: 0.3 μM test compound; for inhibition at 10 µM: 10 μM test compound, read-out: % Inhibition (FS) 10 μM
T1 construct: purchased Panvera
Procedure, shortened: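 Percent inhibition at each tested concentration, referenced to enzyme-free blank and vehicle-only positive control. Reaction: compound and BACE (4 μg/mL working stock) mixed 20 min at room temperature before FS1 substrate (300 μg/mL working stock), then 1 h at room temperature.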

[2] = biological target: T1, β-secretase(BACE); assay: BACE Assay-2 (FS1 substrate, IC50 and Ki); format: biochemical; settings: procedure of Example 159, FS1 substrate; read-out: Ki μM (159)
[3] = read-out: % Inhibition (FS) 0.3 μM
[4] = 1 μM test compound, read-out: % Inhibition (FS) 1 μM
[5] = 3 μM test compound, read-out: % Inhibition (FS) 3 μM
[6] = 1 μM test compound, read-out: % Inhibition (FS)
[7] = 3 μM test compound, read-out: % Inhibition (FS)

T1 sequence (P56817 46-501): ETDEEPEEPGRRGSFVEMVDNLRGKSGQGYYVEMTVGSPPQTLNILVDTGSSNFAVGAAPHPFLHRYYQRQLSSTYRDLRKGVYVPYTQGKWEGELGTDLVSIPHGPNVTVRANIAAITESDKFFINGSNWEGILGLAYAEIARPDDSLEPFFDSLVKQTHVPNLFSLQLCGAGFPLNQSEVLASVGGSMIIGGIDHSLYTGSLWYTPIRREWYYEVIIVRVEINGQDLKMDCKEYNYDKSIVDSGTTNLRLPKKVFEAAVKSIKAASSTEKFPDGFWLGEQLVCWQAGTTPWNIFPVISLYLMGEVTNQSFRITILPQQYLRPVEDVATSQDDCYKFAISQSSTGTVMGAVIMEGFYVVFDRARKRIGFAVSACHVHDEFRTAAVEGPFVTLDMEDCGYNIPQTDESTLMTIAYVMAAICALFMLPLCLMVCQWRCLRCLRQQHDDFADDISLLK

SMILES	inhibition at 0.3 µM [1, 3] [%]	inhibition at 1 µM [1, 4] [%]	inhibition at 3 µM [1, 5] [%]	Ki [2] [µM]	inhibition at 0.3 µM ([1]; read-out: % Inhibition (FS)) [%]	inhibition at 1 µM [1, 6] [%]	inhibition at 3 µM [1, 7] [%]	inhibition at 10 µM [1] [%]	% Inhibition (FS) 0.3 μM [1] [%]	% Inhibition (FS) 1 μM ([1]; 1 μM test compound, 1 µM) [%]	% Inhibition (FS) 3 μM ([1]; 3 μM test compound, 3 µM) [%]
CN(C(=O)CC[C@@H](C1CCCCC1)N1Cc2cc(Oc3ccccc3)ccc2N=C1N)C1CCOCC1 [Compound 638]	74	101	116	0.23							
NC1=Nc2ccc(-c3c(F)cccc3F)cc2CN1CCNC(=O)C1CCCCC1 [Compound 629]	< 30	72	102	0.13							
COc1ccccc1-c1ccc2c(c1)CN(CCC(=O)NC1CCCCC1)C(N)=N2 [Compound 610]	75	106	119	0.076							
CN(C(=O)CC[C@@H](C1CCCCC1)N1Cc2c(cccc2Oc2ccccc2)N=C1N)C1CCCCC1 [Compound 753]				0.656	13	47	93				
CN(C(=O)c1cccc(CN2Cc3cc(-c4ccccc4C(N)=O)ccc3N=C2N)c1)C1CCCCC1 [Compound 173]	< 30	53	76	0.47							
CN(C(=O)CC[C@@H](C1CCOCC1)N1Cc2cc(Oc3ccccc3)ccc2N=C1N)[C@H](COCc1ccccc1)C(=O)O [Compound 784, 2-{[4-(2-Amino-6-phenoxy-4H-quinazolin-3-yl)-4S-(tetrahydro-pyran-4-yl)-butyryl]-methyl-amino}-3R-benzyloxy-propionic acid]				0.298	107	108	120				
CN(C(=O)CCCC(c1ccccc1)N1Cc2cc(Oc3ccccc3)ccc2N=C1N)C1CCCCC1 (stereo not shown) [Compound 152]			85	0.3				107			
NC1=Nc2ccc(-c3ccccc3)cc2CN1CCNC(=O)CC1CCCC1 [Compound 578]	< 30			0.18					31		
COC1CCCC(C(=O)NCCN2Cc3cc(-c4ccccc4Cl)ccc3N=C2N)C1 (stereo not shown) [Compound 692]				0.13	46	90	116				
CN(C(=O)c1cccc(C(c2ccccc2)N2Cc3cc(Oc4ccccc4)ccc3N=C2N)c1)C1CCCCC1 (stereo not shown) [Compound 136]			85	0.5				133			
CCC(c1cccc(C(=O)N(C2CCCCC2)C2CCCCC2)c1)N1Cc2cc(Oc3ccccc3)ccc2N=C1N (stereo not shown) [Compound 419]	38	64	109	0.29							
Cc1cccc(Oc2ccc3c(c2)CN(Cc2cccc(C(=O)N(C)C4CCCCC4)c2)C(N)=N3)c1 [Compound 209]	< 30	58	103	0.29							
CN(CCCN1Cc2cc(Oc3ccccc3)ccc2N=C1N)C1CCCCC1 [Compound 428, 3-[3-(Cyclohexyl-methyl-amino)-propyl]-6-phenoxy-3,4-dihydro-quinazolin-2-ylamine]	< 30	60	98	0.23							
CN(CCN1Cc2cc(Oc3ccccc3)ccc2N=C1N)C(=O)C1CCCCC1 [Compound 426, Cyclohexanecarboxylic acid [2-(2-amino-6-phenoxy-4H-quinazolin-3-yl)-ethyl]-methyl-amide]	< 30	34	86	0.53							
COc1ccccc1-c1ccc2c(c1)CN([C@@H](CCC(=O)N(C)CCc1ccccc1)C1CCCCC1)C(N)=N2 [Compound 721, 4-[2-Amino-6-(2-methoxy-phenyl)-4H-quinazolin-3-yl]-4-(S)-cyclohexyl-N-methyl-N-phenethyl-butyramide]				0.22	60	66	127				
CCCS(=O)(=O)NCCN1Cc2cc(Oc3ccccc3)ccc2N=C1N [Compound 134]			70	0.37				104			
CN(C(=O)c1cccc(CN2Cc3cc(Oc4cccc(-c5ccccc5)c4)ccc3N=C2N)c1)C1CCCCC1 [Compound 231]	< 30	71	75	3.8							
NC1=Nc2ccc(-c3ccccc3O)cc2CN1CCNC(=O)C1CCCCC1 [Compound 538]	< 30	53	100	0.44							
Cc1ccccc1Sc1ccc2c(c1)CN(Cc1cccc(C(=O)N(C)C3CCCCC3)c1)C(N)=N2 [Compound 404]	< 30	32	67	0.78							
CN(C(=O)c1ccc(CN2Cc3cc(Oc4ccccc4)ccc3N=C2N)o1)C1CCCCC1 [Compound 424, 5-(2-Amino-6-phenoxy-4H-quinazolin-3-ylmethyl)-furan-2-carboxylic acid cyclohexyl-methyl-amide]	< 30	50	94	0.4							

These reach a lower Ki [2]. Values come first.

inhibition at 0.3 µM [1, 3] [%]	inhibition at 1 µM [1, 4] [%]	inhibition at 3 µM [1, 5] [%]	Ki [2] [µM]	inhibition at 0.3 µM ([1]; read-out: % Inhibition (FS)) [%]	inhibition at 1 µM [1, 6] [%]	inhibition at 3 µM [1, 7] [%]	inhibition at 10 µM [1] [%]	% Inhibition (FS) 0.3 μM [1] [%]	% Inhibition (FS) 1 μM ([1]; 1 μM test compound, 1 µM) [%]	% Inhibition (FS) 3 μM ([1]; 3 μM test compound, 3 µM) [%]	SMILES
46	88	114	0.054								CN(C(=O)CC[C@@H](C(=O)N(C)C1CCCCC1)N1Cc2cc(Oc3ccccc3)ccc2N=C1N)C1CCCCC1 [Compound 634, (S)-enantiomer of 2-(2-Amino-6-phenoxy-4H-quinazolin-3-yl)-pentanedioic acid bis-(cyclohexyl-methyl-amide)]
			0.045	102	107	120					COC(=O)[C@@H](COCc1ccccc1)N(C)C(=O)CC[C@@H](C1CCCCC1)N1Cc2cc(Oc3ccccc3)ccc2N=C1N [Compound 779]
			0.038	108	109	121					NC1=Nc2ccc(Oc3ccccc3)cc2CN1[C@@H](CCC(=O)N(Cc1nnn[nH]1)C1CCCCC1)C1CCCCC1 [Compound 787, 4-(2-Amino-6-phenoxy-4H-quinazolin-3-yl)-4S,N-dicyclohexyl-N-(1H-tetrazol-5-ylmethyl)-butyramide]
			0.037	82	98	104					CN(C(=O)CC[C@@H](C1CCCCC1)N1Cc2cc(Oc3ccccc3)ccc2N=C1N)[C@H]1CC[C@H](C(=O)O)CC1 [Compound 740]
54	89	119	0.035								CCC(c1cccc(C(=O)N(C2CCCCC2)C2CCCCC2)c1)N1Cc2cc(-c3ccccc3OC)ccc2N=C1N (stereo not shown) [Compound 418]
88	103	111	0.032								Cc1ccccc1-c1ccc2c(c1)CN(CCNC(=O)C1CCCC1)C(N)=N2 [Compound 657, Cyclopentanecarboxylic acid [2-(2-amino-6-o-tolyl-4H-quinazolin-3-yl)-ethyl]-amide]
			0.028	102	111	119					NC1=Nc2ccc(Oc3ccccc3)cc2CN1[C@@H](CCC(=O)N[C@H](CO)C(=O)O)C1CCOCC1 [Compound 773, 2-[4-(2-Amino-6-phenoxy-4H-quinazolin-3-yl)-4S-(tetrahydro-pyran-4-yl)-butyrylamino]-3R-hydroxy-propionic acid]
			0.027					105	115	121	CCCC(CNC(=O)C1CCCCC1)N1Cc2cc(Oc3ccccc3)ccc2N=C1N (stereo not shown) [Compound 601]
			0.025	112	112	116					NC1=Nc2ccc(Oc3ccccc3)cc2CN1[C@@H](CCC(=O)N(CCOCc1ccccc1)[C@H]1CC[C@@H](C(=O)O)CC1)C1CCOCC1 [Compound 751, (S)-enantiomer of 4-[[4-(2-Amino-6-phenoxy-4H-quinazolin-3-yl)-4-(tetrahydro-pyran-4-yl)-butyryl]-(2-benzyloxy-ethyl)-amino]-cyclohexanecarboxylic acid]
			0.017	113	112	115					NC1=Nc2ccc(Oc3ccccc3)cc2CN1[C@@H](CCC(=O)N(CCO)[C@H]1CC[C@@H](C(=O)O)CC1)C1CCCCC1 [Compound 749, (S)-Enantiomer of 4-cis-[[4-(2-Amino-6-phenoxy-4H-quinazolin-3-yl)-4-cyclohexyl-butyryl]-(2-hydroxy-ethyl)-amino]-cyclohexanecarboxylic acid]
			0.013	125	134	135					NC1=Nc2ccc(Oc3ccccc3)cc2CN1[C@@H](CCC(=O)N(CCO)C1CCCCC1)C1CCCCC1 [Compound 736, (S)-enantiomer of 4-(2-Amino-6-phenoxy-4H-quinazolin-3-yl)-4,N-dicyclohexyl-N-(2-hydroxy-ethyl)-butyramide]
115	118	117	0.0084								CN(C(=O)CCC(C1CCC(O)CC1)N1Cc2cc(Oc3ccccc3)ccc2N=C1N)C1CCCCC1 (stereo not shown) [Compound 632, 4-(2-Amino-6-phenoxy-4H-quinazolin-3-yl)-N-cyclohexyl-4-(4-hydroxy-cyclohexyl)-N-methyl-butyramide]
